Among the test systems are 786-0; A549; ACHN; COLO 205; EKVX; HOP-92; MDA-MB-435; NCI/ADR-RES; OVCAR-3; OVCAR-4; PC-3; RPMI-8226; SK-MEL-5; SW-620; TK-10; UACC-62; UO-31; NCI-H226; NCI-H23; NCI-H522.
Assay in all cases: NCI tumour cell line growth inhibition, 48 h

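Compound exposure: 48 hours, 5 concentrations, 96-well plates. Abbreviation: GI50, concentration required for 50% inhibition of growth.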 Active and inactive are the calls of the source. No stated cut-off is given here; in the data, active = GI50 up to about 1.1 µM and inactive = higher.

`Oc1ccc(/C=C/c2cccc(/C=C/c3ccc(O)c(O)c3)n2)cc1O`: the GI50 with 786-0 was 10.7 µM (inactive); in the test on A549 it was 5.25 µM (inactive); in the test with ACHN, 5.14 µM (inactive); in the test with COLO 205, 14.2 µM (inactive); in the test on EKVX it was 11.7 µM (inactive); in the test with HOP-92 it was 11.2 µM (inactive). In addition, the GI50 in the test with MDA-MB-435 is 10.7 µM (inactive); with NCI/ADR-RES it was 5.48 µM (inactive); in the test on OVCAR-3, 4.05 µM (inactive); in the test on OVCAR-4, 6.04 µM (inactive); in the test on PC-3, 17.5 µM (inactive); with RPMI-8226, 3.76 µM (inactive). In addition, the GI50 with SK-MEL-5 is 4.72 µM (inactive); in the test on SW-620 it was 7.05 µM (inactive); with TK-10, 11.4 µM (inactive); with UACC-62, 6.12 µM (inactive); in the test with UO-31 it was 3.85 µM (inactive).
For `CCCCNC(=O)Cn1c2ccc(Br)cc2c2nc3ccccc3nc21`, the GI50 with 786-0, in the test on A549, in the test on ACHN, in the test on COLO 205, with HOP-92 and in the test with MDA-MB-435 was > 100 µM (inactive) in each case. Besides, the GI50 in the test on NCI-H226 is 12.3 µM (inactive); with NCI-H23, > 100 µM (inactive); in the test with NCI/ADR-RES, 42.2 µM (inactive); with OVCAR-3, > 100 µM (inactive); in the test on PC-3 it was > 100 µM (inactive); in the test with RPMI-8226, > 100 µM (inactive). Further, the GI50 in the test on SK-MEL-5, in the test with SW-620, in the test on TK-10, with UACC-62 and with UO-31 was > 100 µM (inactive) throughout.
Consider `N#Cc1ccc(C2NN=CC23C(=O)c2ccccc2OC3c2ccccc2)cc1` (stereo not given), for which the GI50 is 32.1 µM (inactive) in the test on 786-0; 29.4 µM (inactive) in the test with A549; 34.7 µM (inactive) with ACHN; 18.8 µM (inactive) in the test on COLO 205; 21.1 µM (inactive) with EKVX; 30.8 µM (inactive) in the test on MDA-MB-435. In addition, the GI50 with NCI-H226 was 39.4 µM (inactive); in the test with NCI-H23, 30.1 µM (inactive); in the test on NCI-H522 it was 24.2 µM (inactive); with NCI/ADR-RES, 31.5 µM (inactive); in the test on OVCAR-3 it was 30.4 µM (inactive); in the test on OVCAR-4, 33.8 µM (inactive). In addition, the GI50 was 29.7 µM (inactive) in the test with PC-3; 20.8 µM (inactive) in the test on RPMI-8226; 23.7 µM (inactive) in the test with SK-MEL-5; 45.2 µM (inactive) in the test on SW-620; 25.4 µM (inactive) in the test on TK-10; 26.7 µM (inactive) in the test on UACC-62. The GI50 in the test with UO-31 is 19.2 µM (inactive).
With `ClC1(Cl)C2CCOC21n1cnc2ccccc21` (stereo not given), the GI50 with 786-0, in the test on A549, in the test on COLO 205, with EKVX, in the test with MDA-MB-435 and in the test on NCI-H226 was > 100 µM (inactive) in each case. In addition, the GI50 in the test with NCI-H23 was 45 µM (inactive); in the test on NCI-H522, 14.6 µM (inactive); in the test on NCI/ADR-RES, > 100 µM (inactive); in the test with OVCAR-3, > 100 µM (inactive); in the test with OVCAR-4 it was 67.3 µM (inactive); with PC-3, > 100 µM (inactive). Besides, the GI50 is > 100 µM (inactive) in the test on RPMI-8226; > 100 µM (inactive) with SK-MEL-5; 7.21 µM (inactive) in the test with SW-620; 92.9 µM (inactive) in the test on UACC-62; 53.8 µM (inactive) in the test on UO-31.
For `CC(C)(C)OC(=O)N1C(=O)C2CCCC21` (stereo not given), the GI50 with 786-0, in the test with A549, in the test with ACHN, with COLO 205, in the test on HOP-92 and in the test with MDA-MB-435 was > 100 µM (inactive) in each case. For the same compound, the GI50 in the test with NCI-H226, in the test with NCI-H23, in the test with NCI/ADR-RES, with OVCAR-3, in the test with OVCAR-4 and in the test on PC-3 was > 100 µM (inactive) each time. The GI50 in the test on RPMI-8226, in the test with SK-MEL-5, with SW-620 and in the test with UACC-62 was > 100 µM (inactive) throughout.
For the compound `CC(C)CC1C(=O)OC(C)(C)OC1=O`, the GI50 in the test on 786-0, with A549, in the test on ACHN, in the test with COLO 205, with EKVX and in the test with MDA-MB-435 was > 100 µM (inactive) in each case. In addition, the GI50 in the test on NCI-H226, in the test with NCI-H23, in the test with NCI-H522, with NCI/ADR-RES, in the test on OVCAR-3 and in the test on OVCAR-4 was > 100 µM (inactive) each time. In addition, the GI50 in the test with PC-3, with RPMI-8226, in the test with SK-MEL-5, in the test with SW-620, in the test with TK-10 and in the test with UACC-62 was > 100 µM (inactive) throughout. Moreover, the GI50 with UO-31 was > 100 µM (inactive).
On to `COc1ccc(Cc2nc3cc([N+](=O)[O-])ccc3n2C[C@@H]2CCCN3CCCCC23)cc1` (stereo not given in full), for which the GI50 with 786-0 is 18.6 µM (inactive); in the test on A549, 15.8 µM (inactive); in the test on ACHN, 33.2 µM (inactive); in the test with COLO 205, 13.7 µM (inactive); in the test with EKVX, 31 µM (inactive); in the test with HOP-92, 12.8 µM (inactive). In addition, the GI50 in the test on MDA-MB-435 was 18.6 µM (inactive); in the test with NCI-H226, 31.6 µM (inactive); in the test with NCI-H23, 29.8 µM (inactive); in the test with NCI/ADR-RES, 25.2 µM (inactive); in the test on OVCAR-3, 20.9 µM (inactive); in the test with OVCAR-4, 18.7 µM (inactive). Besides, the GI50 was 27.1 µM (inactive) with PC-3; 14.8 µM (inactive) with SK-MEL-5; 26 µM (inactive) in the test with SW-620; 25.2 µM (inactive) with TK-10; 17.3 µM (inactive) in the test on UACC-62; 8.3 µM (inactive) in the test on UO-31.
For `CNNC1=NS(=O)(=O)c2cc(C(=O)OC)c(Cl)cc2S1`, the GI50 with 786-0, with A549, in the test with ACHN, in the test on COLO 205, in the test on EKVX and in the test on MDA-MB-435 was > 10 µM (inactive) each time. For the same compound, the GI50 with NCI-H226, with NCI-H23, in the test on NCI-H522, in the test with NCI/ADR-RES, with OVCAR-3 and with OVCAR-4 was > 10 µM (inactive) in each case. For the same compound, the GI50 in the test on PC-3, with RPMI-8226, with SK-MEL-5, with SW-620, in the test on TK-10 and in the test on UACC-62 was > 10 µM (inactive) in each case. Also, the GI50 with UO-31 is 0.001 µM (active).
Consider `CCOC(=O)c1c(-c2ccc(Cl)cc2)c(C#N)c(=S)n(C2OC(CO)C(O)C(O)C2O)c1-c1ccccc1` (stereo not given), for which the GI50 in the test with 786-0 is 26.7 µM (inactive); with A549, 34.2 µM (inactive); in the test on ACHN, 35.6 µM (inactive); in the test with COLO 205, 30.1 µM (inactive); with HOP-92 it was 18.9 µM (inactive); in the test on MDA-MB-435, 21.3 µM (inactive). For the same compound, the GI50 in the test with NCI-H23 was 30.3 µM (inactive); in the test with NCI/ADR-RES it was 46.9 µM (inactive); in the test on OVCAR-3, 21.3 µM (inactive); with OVCAR-4, 33.5 µM (inactive); with PC-3, 19.9 µM (inactive); in the test on RPMI-8226 it was 34.7 µM (inactive). In addition, the GI50 with SK-MEL-5 was 15.6 µM (inactive); in the test with SW-620, 18.5 µM (inactive); with TK-10 it was 33.8 µM (inactive); in the test with UACC-62 it was 18.7 µM (inactive); in the test with UO-31 it was 38 µM (inactive).
On to `O=P(Oc1ccc(Cl)cc1)(Oc1ccc(Cl)cc1)N1CC1`, for which the GI50 in the test on 786-0, in the test on A549, in the test on ACHN, in the test with COLO 205, in the test on EKVX and in the test with MDA-MB-435 was > 10 µM (inactive) in each case. Also, the GI50 in the test on NCI-H226, with NCI-H23, in the test on NCI/ADR-RES, in the test on OVCAR-3, in the test with OVCAR-4 and with PC-3 was > 10 µM (inactive) in each case. Further, the GI50 with RPMI-8226, in the test on SK-MEL-5, with SW-620, in the test on TK-10, with UACC-62 and in the test with UO-31 was > 10 µM (inactive) throughout.
In the case of `COc1cc(C2(O)c3ccccc3C3=NCCN32)cc(OC)c1OC` (stereo not given), the GI50 with 786-0, in the test with A549, in the test with ACHN, in the test on COLO 205, in the test with HOP-92 and with MDA-MB-435 was > 100 µM (inactive) throughout. Besides, the GI50 in the test on NCI-H226 was 73.3 µM (inactive); with NCI-H23 it was > 100 µM (inactive); in the test on NCI/ADR-RES, > 100 µM (inactive); in the test on OVCAR-3, > 100 µM (inactive); in the test with OVCAR-4, > 100 µM (inactive); in the test with PC-3 it was > 100 µM (inactive). Also, the GI50 with RPMI-8226, in the test on SK-MEL-5, with SW-620, in the test with TK-10, with UACC-62 and with UO-31 was > 100 µM (inactive) throughout.

The values are drawn from ChEMBL document CHEMBL1201862, “PubChem BioAssay data set” (2004).
